Reference: the NIST ThermoML archive (doi:10.1016/j.jct.2012.07.022)

Experiment: wn = mass fraction of the nth substance listed
Settings: 101 kPa, Liquid; for electrical conductivity: Alternating current cell with electrodes; for viscosity: Capillary tube (Ostwald / Ubbelohde) method; for mass density: Vibrating tube method

Nc1[nH]cnc2ncnc1-2 [6-amino-1H-purine] + CC(=O)[O-].CCn1cc[n+](C)c1
Settings	electrical conductivity [S/m]	mass density [kg/m3]	viscosity [mPa·s]
298.15 K, w2 = 0	0.296	1097.6	128.5
298.15 K, w2 = 0.0482	0.209	1111.1	197.7
298.15 K, w2 = 0.1008	0.143	1124.3	318
298.15 K, w2 = 0.1514	0.0996	1135	498.1
298.15 K, w2 = 0.2055	0.0672	1146.4	823.2
298.15 K, w2 = 0.2481	0.0471	1154.5	1235.7
303.15 K, w2 = 0	0.382	1094.5	95.23
303.15 K, w2 = 0.0482	0.278	1107.9	141
303.15 K, w2 = 0.1008	0.197	1121.1	218
303.15 K, w2 = 0.1514	0.142	1131.7	328.1
303.15 K, w2 = 0.2055	0.0995	1143	517.9
303.15 K, w2 = 0.2481	0.0718	1151.2	748.9
308.15 K, w2 = 0	0.48	1091.4	72.42
308.15 K, w2 = 0.0482	0.362	1104.9	103.7
308.15 K, w2 = 0.1008	0.264	1118	154.8
308.15 K, w2 = 0.1514	0.196	1128.6	224.7
308.15 K, w2 = 0.2055	0.142	1139.8	341.2
308.15 K, w2 = 0.2481	0.105	1147.9	477.5
313.15 K, w2 = 0	0.594	1088.4	56.38
313.15 K, w2 = 0.0482	0.459	1101.9	78.37
313.15 K, w2 = 0.1008	0.346	1114.9	113.4
313.15 K, w2 = 0.1514	0.262	1125.5	159.6
313.15 K, w2 = 0.2055	0.194	1136.6	233.9
313.15 K, w2 = 0.2481	0.148	1144.7	318.1
318.15 K, w2 = 0	0.827	1085.3	44.79
318.15 K, w2 = 0.0482	0.571	1098.8	60.64
318.15 K, w2 = 0.1008	0.439	1111.9	85.36
318.15 K, w2 = 0.1514	0.34	1122.4	116.8
318.15 K, w2 = 0.2055	0.259	1133.5	166
318.15 K, w2 = 0.2481	0.202	1141.6	220.1
323.15 K, w2 = 0	0.986	1082.3	36.23
323.15 K, w2 = 0.0482	0.695	1095.8	47.91
323.15 K, w2 = 0.1008	0.546	1108.9	65.78
323.15 K, w2 = 0.1514	0.431	1119.4	87.9
323.15 K, w2 = 0.2055	0.336	1130.4	121.4
323.15 K, w2 = 0.2481	0.267	1138.5	157.4
328.15 K, w2 = 0	–	1079.3	29.78
328.15 K, w2 = 0.0482	–	1092.9	38.55
328.15 K, w2 = 0.1008	–	1105.9	51.75
328.15 K, w2 = 0.1514	–	1116.4	67.64
328.15 K, w2 = 0.2055	–	1127.5	91.14
328.15 K, w2 = 0.2481	–	1135.4	115.9
333.15 K, w2 = 0	–	1076.2	24.82
333.15 K, w2 = 0.0482	–	1089.9	31.51
333.15 K, w2 = 0.1008	–	1102.9	41.48
333.15 K, w2 = 0.1514	–	1113.4	53.16
333.15 K, w2 = 0.2055	–	1124.5	70.05
333.15 K, w2 = 0.2481	–	1132.5	87.5
338.15 K, w2 = 0	–	1073.3	20.95
338.15 K, w2 = 0.0482	–	1086.9	26.14
338.15 K, w2 = 0.1008	–	1099.9	33.78
338.15 K, w2 = 0.1514	–	1110.4	42.55
338.15 K, w2 = 0.2055	–	1121.5	54.95
338.15 K, w2 = 0.2481	–	1129.5	67.57
343.15 K, w2 = 0	–	1070.3	17.88
343.15 K, w2 = 0.0482	–	1083.9	21.96
343.15 K, w2 = 0.1008	–	1096.9	27.91
343.15 K, w2 = 0.1514	–	1107.4	34.61
343.15 K, w2 = 0.2055	–	1118.5	43.91
343.15 K, w2 = 0.2481	–	1126.4	53.21
